In the experiment the target is T1, human VMAT2-eGFP (HEK-293-VMAT2:eGFP) (Homo sapiens, UniProt Q05940).
T1 construct: gene SLC18A2
Briefly: inhibition of [3H]dopamine uptake, digitonin-permeabilized cells. The format is cell-based.

Molecules are shown by their SMILES.

T1 sequence (Q05940 whole entry): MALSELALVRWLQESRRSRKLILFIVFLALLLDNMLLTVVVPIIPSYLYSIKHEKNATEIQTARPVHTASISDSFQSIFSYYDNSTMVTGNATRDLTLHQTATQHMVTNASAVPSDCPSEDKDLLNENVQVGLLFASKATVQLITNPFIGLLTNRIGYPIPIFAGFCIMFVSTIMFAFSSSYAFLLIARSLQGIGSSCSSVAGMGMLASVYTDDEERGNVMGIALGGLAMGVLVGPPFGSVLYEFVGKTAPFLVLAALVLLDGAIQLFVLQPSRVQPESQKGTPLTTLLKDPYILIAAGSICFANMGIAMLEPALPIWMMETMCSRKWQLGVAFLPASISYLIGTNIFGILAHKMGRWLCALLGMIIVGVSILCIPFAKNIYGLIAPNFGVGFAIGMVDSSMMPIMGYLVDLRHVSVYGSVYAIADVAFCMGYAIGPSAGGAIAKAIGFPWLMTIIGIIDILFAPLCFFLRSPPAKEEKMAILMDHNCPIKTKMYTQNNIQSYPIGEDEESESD

As for `NCCc1ccc(O)c(O)c1` [dopamine], half-maximal inhibition (IC50) required 4900 nM. With `COc1cc2c(cc1OC)C1CC(=O)C(CC(C)C)CN1CC2` (centres unmarked) [tetrabenazine] the figure was 28.8 nM.

A word on the IC50: it is the concentration that gives 50% inhibition. High values mean lower potency, low ones higher potency.

The values above are taken from article doi:10.1101/2024.07.04.602053v1, “Evidence for low affinity of GABA at the vesicular monoamine transporter VMAT2 – implications for transmitter co-release from dopamine neurons” (biorxiv, 2024).
